≈ marks a conversion by molar mass, not a printed value. Where two headings read alike, the source gives them in different places.

The test system of series [1] is MT1 gene in WT C. neoformans. Put plainly: MT1 gene expression by qPCR normalized to ACT1. The format is cell-based, Cryptococcus neoformans. The settings on record: 30 min; for MT1 induction, compound alone: 10 μM compound, no Cu. Here is the method:
FIG. 6 is a graph showing Cu+8HQ (not QBP) increase expression levels of the MT1 gene. An overnight growth of WT C. neoformans was diluted in SC media to an OD600 of 0.2, incubated for 3 h to begin log phase growth, and treated with Cu and/or compound as indicated. After 30 min, cells were harvested and RNA was extracted, with subsequent RT-PCR to produce cDNA. Fold-change of MT1 was quantified using qPCR and normalized to ACT1. The strength of MT1 induction increases with [Cu].
5. 8HQ Increases the Cu Burden on C. neoformans. Our working hypothesis for the mechanism of action of 8HQ is that it increases the microbial burden of bioreactive Cu. If 8HQ translocates Cu into the cell in a bioavailable form, we would expect expression levels of proteins involved in Cu homeostasis to be sensitive to that influx. […] Metallothionein proteins are known to detoxify Cu and other metals by encasing them within cysteine-rich coordination sites. Increased expression of MT1 is consistent with our hypothesis that 8HQ increases bioavailable Cu, which is sensed by the cell in the form of MT1 transcription.

Series [2] relates to C. neoformans H99 strain. Description: C. neoformans growth inhibition (OD600 growth curves, MIC). Format: cell-based, Cryptococcus neoformans. The settings on record: for MIC: Cryptococcus neoformans, H99STRAIN; for Growth inhibition of C. neoformans in the presence of 1 mM CuSO4: QBP up to the 100 μM dose tested.
Series [3] relates to S. aureus. Put plainly: S. aureus dose response in tryptic soy broth. The settings on record: no supplemental Cu. Format: cell-based. Here is the method: FIG. 8 is a graph showing that S. Aureus dose response to 8HQ and QBP. Under these conditions, 8HQ inhibits S. Aureus growth at concentrations above ˜150 μM, whereas QBP in nontoxic up to ˜2.5 mM. Supplemental Cu was not added in these experiments, so presumably 8HQ is using Cu present in the tryptic soy broth medium.
(§1) 6. Broad Spectrum Activity The antimicrobial properties of oxine (8HQ) against a broad spectrum of fungal and bacterial pathogens has long been recognized. Taking advantage of this cytotoxic activity while minimizing damage to the host has prevented the application of these compounds to combat infectious disease in humans. […] We tested this hypothesis by comparing the cytotoxicity of 8HQ vs QBP against other microbes. Preliminary results indeed show a differential cytotoxicy of 8HQ vs QBP in S. aureus (FIG. 8), E. coli (FIG. 9) and M. marinum (data not shown). In these preliminary results, supplemental Cu was not added to the growth media, so presumably 8HQ uses the basal Cu present in the media to inflict its growth inhibitory action.

Series [4] concerns C. neoformans H99 strain. Description: C. neoformans growth inhibition (OD600 growth curves, MIC). The format is cell-based, Cryptococcus neoformans. To be noted: for C. neoformans growth with Cu, without H2O2: SC media + 10 μM CuSO4, no H2O2; for MIC: Cryptococcus neoformans, H99STRAIN, growth inhibition of C. neoformans, no Cu added. On the procedure:
(§2) Top: Growth of C. neoformans H99 strain in SC media monitored by optical density (OD) over the course of 50 hours, where an increase in OD600 indicates normal growth. […] Bottom: In a follow up experiment to the growth curve assay shown on top, samples were taken after 50 h and plated to determine colony-forming units (CFUs).
The ability of 8-HQ to inhibit C. neoformans growth was tested with respect to metal specificity. The concentration of the indicated metals was held constant at 10 μM and cells were incubated in the presence of escalating doses of 8HQ from 0 to 50 μM. Growth was monitored over a time course in hours (x-axis) and the optical density at 600 nm was plotted at each time (y-axis).
WT C. neoformans H99 strain was grown in SC media+/−10 μM CuSO4 and 8HQ or QBP at indicated concentrations. Growth was monitored by OD600 and normalized to 100% viability for untreated controls after 50 h at 30° C.

The test system of series [5] is murine macrophage-like J774A.1 cells. Description: Viability of macrophage-like cells (CellTiter-Glo).
Method: Cells were seeded at 1×10^5 cells/mL in 96-well plate in DMEM+10% FBS, incubated at 37° C. for 12 h, and assayed for viability with CellTiter-Glo®.
Series [6] deals with E. coli. Put plainly: E. coli dose response in M9 minimal medium. The format is cell-based. To be noted: no supplemental Cu. On the procedure: FIG. 9 is a graph showing that E. coli dose response to 8HQ and QBP. Under these conditions, 8HQ inhibits E. coli growth at concentrations above ˜1.5 mM, whereas QBP in nontoxic up to 10 mM. Supplemental Cu was not added in these experiments, so presumably 8HQ is using Cu present in the M9 minimal medium.
as §1

For series [7], the system named is C. neoformans CTR1/4Δ strain. To be noted: YPEG media without Cu supplementation. Here is the method:
(§3) FIG. 7 is a graph showing the Effects of 8HQ on growth of C. neoformans mutants. A) WT C. neoformans and a MT1/2Δ[…], strain were grown in SC media with 10 μM CuSO4 and increasing [8HQ].

The test system of series [8] is C. neoformans MT1/2Δ strain. The settings on record: SC media with 10 μM CuSO4. Here is the method: as §3
The test system of series [9] is C. neoformans H99 strain. The settings on record: 10 μM or higher 8HQ in the presence of 10 μM CuSO4. On the procedure:
as §2

Series [10] can be described thus: Tolerability of intraperitoneal administration to mice. The settings on record: 2 mg/kg or 10 mg/kg every second day over a two-week period. Format: in vivo. An excerpt:
4. Toxicity of Prochelator is Activated by H2O2.

For series [11] the following is noted: in vitro; 25° C.; cited from earlier work.
In series [12] the test system is M. marinum. Put plainly: M. marinum cytotoxicity comparison (data not shown). The format is cell-based. The settings on record: no supplemental Cu, preliminary. An excerpt:
6. Broad Spectrum Activity The antimicrobial properties of oxine (8HQ) against a broad spectrum of fungal and bacterial pathogens has long been recognized. Taking advantage of this cytotoxic activity while minimizing damage to the host has prevented the application of these compounds to combat infectious disease in humans.

Series [13] relates to IFN-γ and LPS-activated primary bone marrow derived macrophage cells (BMM). Description: Viability of activated primary bone marrow derived macrophages. The settings on record: doses up to 50-100 μM, even with supplemental Cu; data not shown.
Setting [14] is: doses up to 50-100 μM, even with supplemental Cu.
Where [15] appears, read: growth inhibition of C. neoformans, * 1 mM Cu2+, read-out: MIC (with added Copper(II) Sulfate).

As to `Cc1cc(-c2ccc(S(=O)(=O)O)cc2)c2ccc3c(-c4ccc(S(=O)(=O)O)cc4)cc(C)nc3c2n1` [BCS], in [1], the “Change in MT1 expression, control chelator” value was “does not lead to a change in MT1 expression”.
For the molecule `O=S(=O)([O-])[O-].[Cu+2]` [copper, Copper(II) Sulfate], the “C. neoformans growth (OD600), copper tested individually” value in [2] (1 mM copper alone, SC media, 50 hours) is “not affected”.
`Oc1cccc2cccnc12` [8HQ, 8-hydroxyquinoline]: the “Concentration above which S. aureus growth is inhibited” value in series [3] is about 150 µM. The “C. neoformans growth with Cu, without H2O2” value in series [4] (50 h at 30° C.) was “inhibits growth”. In addition, the “IC50, cell viability of J774A.1 cells” value in [5] (medium supplemented with 10 μM CuSO4) is “sub-μM”. Moreover, the IC50 in [5] (read-out: IC50, cell viability of J774A.1 cells, no supplemental Cu) is about 5 µM. For the same molecule, the “C. neoformans growth (OD600), compound tested individually” value in series [2] (100 μM 8HQ alone, SC media, 50 hours) is “not affected”. Further, the MIC is over 100 µM in series [2] (read-out: MIC (no Cu added), growth inhibition of C. neoformans, no Cu added); 5 µM (≈ 0.726 µg/mL) in series [2] (read-out: MIC (with added Copper(II) Sulfate), growth inhibition of C. neoformans, * 10 M Cu2+); 5 µM in series [2] (read-out: MIC of 8HQ with supplemental Cu, 10 μM supplemental Cu (CuSO4)); 50 µM in series [2] (read-out: MIC of 8HQ with supplemental iron, 10 μM supplemental iron); 25 µM in series [2] (read-out: MIC of 8HQ with supplemental silver, 10 μM supplemental silver); 50 µM in series [2] (read-out: MIC of 8HQ with supplemental zinc, 10 μM supplemental zinc). In series [6], the “Concentration above which E. coli growth is inhibited” value is listed as about 1.5 mM. Moreover, the “Growth of transporter mutant on addition of 8HQ” value in series [7] is recorded as “promotes growth”. Further, the “8HQ concentration at which growth defect begins” value in series [8] was found to be 6.25 µM. In addition, the “Colony-forming units (CFUs) after 50 h” value in [9] is reported as “absence of CFUs”. Besides, the “MT1 induction, compound alone” value in series [1] is reported as “do not cause robust induction of MT1”. The “MT1 levels, 8HQ+Cu” value in series [1] (8HQ+Cu (10 pM each)) is “MT1 levels greater than what is seen with 100 μM CuSO4 alone”.
For the molecule `CC1(C)C2CC3OB(c4cccc5cccnc45)O[C@]3(C)C1C2` (stereo in doubt) [QBP, quinoline boronic ester], the “Adverse effects in mice” value in series [10] is recorded as “no obvious adverse affects”. For the same molecule, the “Rate constant of conversion to 8HQ upon reaction with H2O2” value in [11] was 0.25 M⁻¹ s⁻¹. The “Concentration up to which nontoxic to S. aureus” value in series [3] is about 2.5 mM. Besides, the MIC in series [4] and in series [2] (setting [15]) was over 100 µM each time. The “C. neoformans growth with Cu and H2O2” value in series [4] (QBP/H2O2/Cu, SC media, 50 h at 30° C.) is recorded as “inhibited cell growth as well as 8HQ/Cu”. Moreover, in series [4] (50 h at 30° C.), the “C. neoformans growth with Cu, without H2O2” value was “did not inhibit cell growth”. Further, the “Toxicity to C. neoformans” value in series [4] (setting [14]) is given as “nontoxic”. In series [5] (setting [14]), the “Toxicity to J774A.1 cells” value is on record as “nontoxic”. Also, the “Toxicity to M. marinum compared with 8HQ” value in series [12] is recorded as “significantly less toxic”. Also, the “Toxicity to BMM” value in series [13] is given as “nontoxic”. Also, the “Growth inhibition of C. neoformans in the presence of 1 mM CuSO4” value in series [2] is given as “nontoxic”. The “Concentration up to which nontoxic to E. coli” value in [6] is listed as “up to 10 mM”. Moreover, in series [1], the “MT1 induction, compound alone” value is reported as “do not cause robust induction of MT1”. In addition, in series [1] (QBP+Cu (10 μM each)), the “MT1 response, QBP+Cu” value is “responds identically to treatment with 10 μM CuSO4 alone”.
Consider `Oc1ccc2ncccc2c1` [6HQ, 6-hydroxyquinoline], for which the MIC in series [4] and in series [2] (setting [15]) was over 100 µM in each case. Also, in [2], the “Growth inhibition of C. neoformans in the presence of 1 mM CuSO4” value was “does not inhibit growth”.

In general, IC50 refers to the concentration needed to halve the response being measured. What is called MIC is the smallest concentration in the dilution series that meets the test's criterion for growth inhibition.
